# According to patent publication US20020169111A1, “Reversal of multidrug resistance in human colon carcinoma cells” (American Cyanamid Comany, priority 1998, published 2002):
# Where two headings read alike, the source gives them in different places.
# Legend:
# [1] = system: S1-M1-3.2 cells; assay: Drug accumulation analysis with [14C] drug; type: cell-based, human; settings: S1-M1-3.2 cells
# Procedure: (§1) To determine the mechanism of resistance, drug resistant and sensitive cells were incubated with radioactive analogues of antitumor agents and cell-associated radioactivity was measured by scintillation counting. Alternatively, surrogates of chemotherapeutic drugs may be used. The surrogate has no antitumor activity itself but interacts with the cancer cell proteins such as P-gp or MRP in a similar manner as an anticancer drug. The surrogate chemotherapeutic drug would have a property such as fluorescence which is useful for determining the drug resistance mechanisms such as efflux.
# (§2) Cells were plated in 60 mm dishes (1×10^6 cells per dish) or in 24 well clusters (2 ×10^5 cells per well) and allowed to grow for 1-2 days. […] Drugs used were [^14C]-mitoxantrone (Amersham, 1 or 5 μM; specific activity 66 mCi/mmol) or [^14C]-doxorubicin (Amersham, 0.5 or 3 μM; specific activity 50-62 mCi/mmol ). […] Unbound drug was removed by washing twice in ice-cold phosphate buffered saline (PBS), cells were solubilized in 2 N NaOH at 37° C. for 1-2 hours, and analyzed by scintillation counting. Results were normalized to cell protein content measured by a Lowry assay.
# (§3) The cells were then washed, solubilized, and counted in a scintillation counter. Values are mean disintegration per minute per μg protein of triplicate determinations ± standard deviation.
# [2] = system: S1-B1-20 cells; assay: Drug accumulation analysis with [14C] drug; type: cell-based, human; settings: 90 minutes
# Procedure: as §1, §2, §3
# [3] = system: S1 cells; assay: Drug accumulation analysis with [14C] drug; type: cell-based, human; settings: 90 minutes
# Procedure: as §1, §2, §3
# [4] = system: 8226/MR4 cells; assay: Reversal of mitoxantrone resistance in myeloid cells; type: cell-based, human; settings: selected for resistance to mitoxantrone
# [5] = system: HL-60/AR cells; type: cell-based; settings: for Dose modifying factor: HL-60/AR
# Procedure: Cell survival was estimated after 3 days using the SRB assay. Cell survival was determined by the SRB assay and EC50 values were determined from toxicity curves. The dose modifying factor (DMF) is the ratio of EC50 values obtained in the absence and presence of reversal agent. Maximum DMF values (shown in parentheses) is the ratio of EC50 values of resistant and sensitive cells in the absence of the reversal agent. This value is obtained when resistance is reversed completely, and is the equivalent of the relative resistance.
structure (smiles),measurement,setting,value
COc1ccc2c3c([nH]c2c1)[C@H](C=C(C)C)N1C(=O)[C@@H]2CCCN2C(=O)[C@@H]1C3 [Fumitremorgin C],increase of amount of doxorubicin retained,[1]; 1 μM FTC,3.4 fold
same,increase of amount of mitoxantrone retained,[1]; 1 μM FTC,2 fold
same,Doxorubicin Drug Accumulation with 1 μM FTC,"[1]; [14C] doxorubicin, 90 minutes",65 ± 17 DPM/μg protein
same,Mitoxantrone Drug Accumulation with 1 μM FTC,"[1]; [14C] mitoxantrone, 90 minutes",2220 ± 147 DPM/μg protein
same,Doxorubicin Drug Accumulation with 1 μM FTC,[2]; [14C] doxorubicin,26 ± 1 DPM/μg protein
same,Mitoxantrone Drug Accumulation with 1 μM FTC,[2]; [14C] mitoxantrone,1189 ± 53 DPM/μg protein
same,Doxorubicin Drug Accumulation with 1 μM FTC,[3]; [14C] doxorubicin,111 ± 15 DPM/μg protein
same,Mitoxantrone Drug Accumulation with 1 μM FTC,[3]; [14C] mitoxantrone,2246 ± 233 DPM/μg protein
same,reversal of resistance in 8226/MR4 cells (in words),[4],reversed low level resistance
same,"reversal activity of FTC (fold), range over drugs",[5]; HL60/AR,2.6-3.3 fold
same,Dose modifying factor,[5]; 5 μM FTC with Doxorubicin,2.8 (92.3)
same,Dose modifying factor,[5]; 5 μM FTC with Mitoxantrone,3.3 (53)
same,Dose modifying factor,[5]; 5 μM FTC with Paclitaxel,2.6 (5.1)
same,reversal of resistance in MRP-positive HL60/AR cells (in words),[5]; doxorubicin-selected,did not reverse resistance
